Values quoted from earlier work, collected in patent EP3957303A1, “PHARMACEUTICAL COMBINATION PREPARATION COMPRISING EZETIMIBE AND LOSARTAN” (Hanmi Pharm. Co., Ltd., priority 2019, dated 2020).

- saturation solubility (under acidic to weakly basic conditions such as body fluids): about 1 ppm
- solubility in water (water): practically insoluble in water
Compound: O=C1[C@H](CC[C@H](O)c2ccc(F)cc2)[C@@H](c2ccc(O)cc2)N1c1ccc(F)cc1 [Ezetimibe, 1-(4-fluorophenyl)-3(R)-[3-(4-fluorophenyl)-3(S)-hydroxypropyl]-4(S)-(4-hydroxyphenyl)-2-azetidinone]
